Assay results as given in the kinase profiling compilation of Christmann-Franck et al. (2016).
Values joined by “and” are separate entries in the source; they are usually repeats but may differ in a detail not shown here. Equal entries are not always repeated.

Key:
Test in all cases: radiometric filter-binding kinase assay, Kinase HotSpot
Conditions in all cases: compound 0.5 µM; ATP 10 µM
[1] = molecular target: ABL2 (human) (UniProt P42684)
[2] = molecular target: AKT1 (human) (UniProt P31749)
[3] = molecular target: AURKA (human) (UniProt O14965)
[4] = molecular target: BRSK2 (human) (UniProt Q8IWQ3)
[5] = molecular target: CAMK4 (human) (UniProt Q16566)
[6] = molecular target: CAMKK1 (human) (UniProt Q8N5S9)
[7] = molecular target: CAMKK2 (human) (UniProt Q96RR4)
[8] = molecular target: CDK1 CCNA2 (human) (UniProt P06493+P20248)
[9] = molecular target: CDK3 CCNE1 (human) (UniProt Q00526+P24864)
[10] = molecular target: DCLK2 (human) (UniProt Q8N568)
[11] = molecular target: DYRK1B (human) (UniProt Q9Y463)
[12] = molecular target: IGF1R (human) (UniProt P08069)
[13] = molecular target: IKBKB (human) (UniProt O14920)
[14] = molecular target: JAK3 JH1 JH2 (human) (UniProt P52333)
[15] = molecular target: LYN (human) (UniProt P07948)
[16] = molecular target: MAP3K14 (human) (UniProt Q99558)
[17] = molecular target: MAPK9 (human) (UniProt P45984)
[18] = molecular target: MAPKAPK5 (human) (UniProt Q8IW41)
[19] = molecular target: MARK1 (human) (UniProt Q9P0L2)
[20] = molecular target: MET (human) (UniProt P08581)
[21] = molecular target: NTRK1 (human) (UniProt P04629)
[22] = molecular target: OXSR1 (human) (UniProt O95747)
[23] = molecular target: PAK2 (human) (UniProt Q13177)
[24] = molecular target: PAK4 (human) (UniProt O96013)
[25] = molecular target: PAK6 (human) (UniProt Q9NQU5)
[26] = molecular target: PDPK1 (human) (UniProt O15530)
[27] = molecular target: PRKCA (human) (UniProt P17252)
[28] = molecular target: PRKCB2 (human) (UniProt P05771)
[29] = molecular target: PRKCH (human) (UniProt P24723)
[30] = molecular target: PTK6 (human) (UniProt Q13882)
[31] = molecular target: RIPK2 (human) (UniProt O43353)
[32] = molecular target: RPS6KA3 KD1 KD2 (human) (UniProt P51812)
[33] = molecular target: RPS6KB1 (human) (UniProt P23443)
[34] = molecular target: SRPK3 (human) (UniProt Q9UPE1)
[35] = molecular target: STK16 (human) (UniProt O75716)
[36] = molecular target: STK38 (human) (UniProt Q15208)
[37] = molecular target: SYK (human) (UniProt P43405)
[38] = molecular target: TXK (human) (UniProt P42681)
[39] = molecular target: TYK2 JH1 catalytic (human) (UniProt P29597)
[40] = molecular target: ULK3 (human) (UniProt Q6PHR2)
[41] = molecular target: ZAP70 (human) (UniProt P43403)
[42] = molecular target: NEK1 (human) (UniProt Q96PY6)

Chain of PAK2 (human) (Q13177 whole entry, looked up): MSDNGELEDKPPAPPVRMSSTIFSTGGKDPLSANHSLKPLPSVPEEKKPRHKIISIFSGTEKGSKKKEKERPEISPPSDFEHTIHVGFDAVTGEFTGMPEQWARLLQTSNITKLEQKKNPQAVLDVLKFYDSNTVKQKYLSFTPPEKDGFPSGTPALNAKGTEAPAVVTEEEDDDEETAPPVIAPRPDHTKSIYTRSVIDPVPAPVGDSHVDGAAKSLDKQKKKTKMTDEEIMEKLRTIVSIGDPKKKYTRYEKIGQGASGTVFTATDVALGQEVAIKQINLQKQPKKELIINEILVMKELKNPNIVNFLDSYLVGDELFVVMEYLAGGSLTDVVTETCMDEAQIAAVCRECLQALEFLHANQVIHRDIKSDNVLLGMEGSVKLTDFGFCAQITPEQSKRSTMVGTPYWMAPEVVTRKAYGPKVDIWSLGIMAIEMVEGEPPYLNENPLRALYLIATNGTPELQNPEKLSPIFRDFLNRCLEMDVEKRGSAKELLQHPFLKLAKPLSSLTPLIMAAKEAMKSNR
Chain of PAK6 (human) (Q9NQU5 whole entry, looked up): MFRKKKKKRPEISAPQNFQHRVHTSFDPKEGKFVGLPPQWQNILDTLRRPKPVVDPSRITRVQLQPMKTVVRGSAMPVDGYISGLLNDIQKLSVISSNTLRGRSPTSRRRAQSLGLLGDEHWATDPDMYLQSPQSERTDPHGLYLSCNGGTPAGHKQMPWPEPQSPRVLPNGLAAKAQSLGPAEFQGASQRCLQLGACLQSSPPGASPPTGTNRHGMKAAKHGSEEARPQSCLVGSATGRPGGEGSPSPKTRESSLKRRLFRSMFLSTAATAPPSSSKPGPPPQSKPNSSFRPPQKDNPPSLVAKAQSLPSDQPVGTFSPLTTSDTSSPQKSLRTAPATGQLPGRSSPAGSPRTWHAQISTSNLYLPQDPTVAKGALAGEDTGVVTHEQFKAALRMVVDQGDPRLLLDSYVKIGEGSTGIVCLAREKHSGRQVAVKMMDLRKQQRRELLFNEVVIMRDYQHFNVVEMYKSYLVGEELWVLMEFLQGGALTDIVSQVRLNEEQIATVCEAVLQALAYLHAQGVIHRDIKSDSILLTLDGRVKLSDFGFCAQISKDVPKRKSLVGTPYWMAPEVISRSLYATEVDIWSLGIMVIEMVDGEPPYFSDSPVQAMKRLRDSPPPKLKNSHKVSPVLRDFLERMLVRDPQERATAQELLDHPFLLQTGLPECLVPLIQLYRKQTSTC
Chain of PAK4 (human) (O96013 whole entry, looked up): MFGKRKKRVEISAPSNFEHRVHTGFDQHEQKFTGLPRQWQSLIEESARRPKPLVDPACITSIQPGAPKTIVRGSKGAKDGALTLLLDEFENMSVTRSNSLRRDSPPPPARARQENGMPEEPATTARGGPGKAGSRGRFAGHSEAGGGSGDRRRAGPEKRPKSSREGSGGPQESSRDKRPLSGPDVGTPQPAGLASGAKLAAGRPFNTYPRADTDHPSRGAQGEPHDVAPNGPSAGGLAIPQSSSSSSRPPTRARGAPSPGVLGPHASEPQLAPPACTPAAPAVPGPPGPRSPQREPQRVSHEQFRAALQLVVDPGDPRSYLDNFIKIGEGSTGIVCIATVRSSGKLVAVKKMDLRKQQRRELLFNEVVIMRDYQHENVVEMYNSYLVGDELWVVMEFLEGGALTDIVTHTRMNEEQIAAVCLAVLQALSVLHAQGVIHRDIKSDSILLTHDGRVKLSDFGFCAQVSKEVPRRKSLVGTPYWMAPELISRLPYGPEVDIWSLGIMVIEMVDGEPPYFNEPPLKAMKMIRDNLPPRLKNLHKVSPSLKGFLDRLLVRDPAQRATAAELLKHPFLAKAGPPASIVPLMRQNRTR
Chain of RPS6KA3 KD1 KD2 (human) (P51812 whole entry, looked up): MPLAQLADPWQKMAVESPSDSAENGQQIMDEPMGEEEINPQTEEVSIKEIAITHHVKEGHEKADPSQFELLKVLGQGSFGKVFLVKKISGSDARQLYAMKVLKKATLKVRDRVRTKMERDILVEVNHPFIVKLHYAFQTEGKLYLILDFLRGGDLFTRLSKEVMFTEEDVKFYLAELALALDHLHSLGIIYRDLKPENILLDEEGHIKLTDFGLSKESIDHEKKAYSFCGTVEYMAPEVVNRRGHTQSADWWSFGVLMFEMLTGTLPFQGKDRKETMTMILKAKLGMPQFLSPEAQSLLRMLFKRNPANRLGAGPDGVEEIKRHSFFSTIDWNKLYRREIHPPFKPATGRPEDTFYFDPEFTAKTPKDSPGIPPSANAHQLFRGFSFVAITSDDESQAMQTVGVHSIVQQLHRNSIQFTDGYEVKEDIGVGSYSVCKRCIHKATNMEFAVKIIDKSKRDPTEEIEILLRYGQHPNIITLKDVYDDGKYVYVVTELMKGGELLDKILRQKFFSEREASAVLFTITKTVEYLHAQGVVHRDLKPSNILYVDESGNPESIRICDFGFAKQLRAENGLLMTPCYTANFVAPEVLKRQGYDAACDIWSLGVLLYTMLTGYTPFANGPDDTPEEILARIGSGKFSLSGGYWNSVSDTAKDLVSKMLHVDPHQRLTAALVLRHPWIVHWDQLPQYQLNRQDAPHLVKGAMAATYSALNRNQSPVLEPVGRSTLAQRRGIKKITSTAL
Chain of CAMKK2 (human) (Q96RR4 whole entry, looked up): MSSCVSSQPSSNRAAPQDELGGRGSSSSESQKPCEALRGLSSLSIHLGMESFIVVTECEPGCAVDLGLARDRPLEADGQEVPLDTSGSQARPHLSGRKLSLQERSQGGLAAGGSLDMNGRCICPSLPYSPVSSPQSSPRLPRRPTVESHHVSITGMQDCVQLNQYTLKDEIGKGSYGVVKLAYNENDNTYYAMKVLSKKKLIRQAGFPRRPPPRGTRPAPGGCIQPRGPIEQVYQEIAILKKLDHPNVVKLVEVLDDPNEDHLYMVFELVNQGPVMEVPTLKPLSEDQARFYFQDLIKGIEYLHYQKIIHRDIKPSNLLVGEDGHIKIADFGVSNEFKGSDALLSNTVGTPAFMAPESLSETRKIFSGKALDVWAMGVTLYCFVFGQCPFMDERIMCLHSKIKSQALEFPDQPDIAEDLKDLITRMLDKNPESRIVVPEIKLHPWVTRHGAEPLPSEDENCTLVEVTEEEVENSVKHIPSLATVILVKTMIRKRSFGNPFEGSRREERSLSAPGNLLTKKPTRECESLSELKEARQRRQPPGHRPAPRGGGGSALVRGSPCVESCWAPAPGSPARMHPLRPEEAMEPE
Chain of PRKCB2 (human) (P05771 whole entry, looked up): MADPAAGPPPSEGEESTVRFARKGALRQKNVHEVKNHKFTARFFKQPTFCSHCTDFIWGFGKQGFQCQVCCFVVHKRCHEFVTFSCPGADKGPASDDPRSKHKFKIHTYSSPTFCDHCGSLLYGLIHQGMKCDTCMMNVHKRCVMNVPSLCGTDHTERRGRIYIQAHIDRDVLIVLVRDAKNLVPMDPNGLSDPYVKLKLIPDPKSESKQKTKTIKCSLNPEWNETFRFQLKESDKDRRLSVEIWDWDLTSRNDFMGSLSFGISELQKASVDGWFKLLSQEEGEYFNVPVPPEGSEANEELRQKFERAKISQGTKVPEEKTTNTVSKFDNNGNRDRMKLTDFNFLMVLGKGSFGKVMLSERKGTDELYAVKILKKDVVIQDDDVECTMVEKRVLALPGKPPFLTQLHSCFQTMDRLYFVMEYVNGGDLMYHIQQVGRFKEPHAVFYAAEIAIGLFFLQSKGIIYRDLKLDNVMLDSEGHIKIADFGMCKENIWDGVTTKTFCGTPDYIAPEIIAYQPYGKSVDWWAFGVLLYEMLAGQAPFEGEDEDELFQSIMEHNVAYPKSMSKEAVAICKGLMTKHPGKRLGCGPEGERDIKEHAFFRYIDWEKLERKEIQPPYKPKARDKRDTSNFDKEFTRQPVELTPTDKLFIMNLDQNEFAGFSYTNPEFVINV
Chain of PTK6 (human) (Q13882 whole entry, looked up): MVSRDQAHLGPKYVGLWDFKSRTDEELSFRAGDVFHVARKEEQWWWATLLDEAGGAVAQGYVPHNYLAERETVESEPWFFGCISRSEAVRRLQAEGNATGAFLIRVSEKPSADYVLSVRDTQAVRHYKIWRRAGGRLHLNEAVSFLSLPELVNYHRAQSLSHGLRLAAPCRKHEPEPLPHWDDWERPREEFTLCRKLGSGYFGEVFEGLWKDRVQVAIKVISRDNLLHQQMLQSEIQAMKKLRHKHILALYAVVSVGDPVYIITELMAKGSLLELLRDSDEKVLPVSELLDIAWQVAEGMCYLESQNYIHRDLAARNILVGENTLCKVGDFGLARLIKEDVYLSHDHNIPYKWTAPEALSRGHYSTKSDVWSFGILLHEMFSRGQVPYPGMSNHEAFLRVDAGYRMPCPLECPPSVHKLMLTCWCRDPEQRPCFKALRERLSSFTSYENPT
Chain of CAMKK1 (human) (Q8N5S9 whole entry, looked up): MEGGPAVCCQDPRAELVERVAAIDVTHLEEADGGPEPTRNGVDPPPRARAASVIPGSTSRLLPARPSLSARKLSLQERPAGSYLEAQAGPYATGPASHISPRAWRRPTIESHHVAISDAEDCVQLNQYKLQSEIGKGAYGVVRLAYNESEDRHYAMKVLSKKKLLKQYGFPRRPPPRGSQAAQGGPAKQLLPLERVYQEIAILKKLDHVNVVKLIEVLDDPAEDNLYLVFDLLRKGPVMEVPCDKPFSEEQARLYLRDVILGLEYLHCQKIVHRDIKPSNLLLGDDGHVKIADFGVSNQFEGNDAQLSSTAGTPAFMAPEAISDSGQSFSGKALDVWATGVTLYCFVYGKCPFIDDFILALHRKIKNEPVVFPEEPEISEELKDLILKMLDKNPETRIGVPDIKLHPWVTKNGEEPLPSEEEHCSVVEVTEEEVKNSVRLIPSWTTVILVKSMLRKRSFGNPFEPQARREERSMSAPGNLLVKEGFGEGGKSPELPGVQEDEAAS

c1ccc(-c2n[nH]cc2-c2ccnc3ccccc23)nc1
residual activity [1]: 67.8% | residual activity [2]: 100% | residual activity [3]: 95.4% | residual activity [4]: 101% | residual activity [5]: 97.5% | residual activity [6]: 109% | residual activity [7]: 97% | residual activity [8]: 82.7% | residual activity [9]: 94.2% | residual activity [10]: 97.4% | residual activity [11]: 102% | residual activity [12]: 102% | residual activity [13]: 105% | residual activity [14]: 92.7% | residual activity [15]: 100% and 87.8% | residual activity [16]: 116% | residual activity [17]: 98.9% | residual activity [18]: 95.6% | residual activity [19]: 79.2% | residual activity [20]: 94.1% | residual activity [21]: 102% | residual activity [22]: 85.3% | residual activity [23]: 57% | residual activity [24]: 76.9% | residual activity [25]: 106% | residual activity [26]: 93.8% | residual activity [27]: 98.5% | residual activity [28]: 92.1% | residual activity [29]: 94.6% | residual activity [30]: 70.9% | residual activity [31]: 64.7% | residual activity [32]: 101% | residual activity [33]: 106% | residual activity [34]: 88.9% | residual activity [35]: 100% | residual activity [36]: 111% | residual activity [37]: 99.7% | residual activity [38]: 89.1% | residual activity [39]: 101% | residual activity [40]: 85.3% | residual activity [41]: 100%

CCN(CC)CCNC(=O)c1c(C)[nH]c(/C=C2\C(=O)Nc3ccc(F)cc32)c1C
residual activity [1]: 61.8% | residual activity [2]: 105% | residual activity [3]: 59.7% | residual activity [4]: 54.5% | residual activity [5]: 88.6% | residual activity [6]: 52.1% | residual activity [7]: 65.3% | residual activity [8]: 98.4% | residual activity [9]: 91% | residual activity [10]: 85% | residual activity [11]: 60% | residual activity [12]: 62.6% | residual activity [13]: 81% | residual activity [14]: 80.7% | residual activity [15]: 23% and 34.6% | residual activity [16]: 127% | residual activity [17]: 96.7% | residual activity [18]: 82.7% | residual activity [19]: 40.9% | residual activity [20]: 91% | residual activity [42]: 72.6% | residual activity [21]: 11.5% | residual activity [22]: 105% | residual activity [23]: 98.1% | residual activity [24]: 80.9% | residual activity [25]: 107% | residual activity [26]: 81.6% | residual activity [27]: 79.9% | residual activity [28]: 104% | residual activity [29]: 112% | residual activity [30]: 84.5% | residual activity [31]: 104% | residual activity [32]: 35.5% | residual activity [33]: 42.3% | residual activity [34]: 102% | residual activity [35]: 55.7% | residual activity [36]: 93.8% | residual activity [38]: 92.6% | residual activity [39]: 52.6% | residual activity [40]: 57.4% | residual activity [41]: 97.2%

CCOC(=O)c1c(C)[nH]c(/C=C2\C(=O)Nc3ccccc32)c1C
residual activity [1]: 88.5% | residual activity [2]: 96.1% | residual activity [3]: 90.4% | residual activity [4]: 98.7% | residual activity [5]: 97.7% | residual activity [6]: 95.3% | residual activity [7]: 90.8% | residual activity [8]: 96.3% | residual activity [9]: 94% | residual activity [10]: 94.7% | residual activity [11]: 105% | residual activity [12]: 79.5% | residual activity [13]: 101% | residual activity [14]: 69.1% | residual activity [15]: 84.1% and 98.4% | residual activity [16]: 118% | residual activity [17]: 93.9% | residual activity [18]: 93.9% | residual activity [19]: 90.8% | residual activity [20]: 87.4% | residual activity [42]: 92.5% | residual activity [21]: 69.9% | residual activity [22]: 87.9% | residual activity [23]: 92.5% | residual activity [24]: 71.8% | residual activity [25]: 81.4% | residual activity [26]: 92.5% | residual activity [28]: 91.5% | residual activity [29]: 94% | residual activity [30]: 82.8% | residual activity [31]: 88.3% | residual activity [32]: 86.4% | residual activity [33]: 85.7% | residual activity [34]: 88.8% | residual activity [35]: 88.3% | residual activity [36]: 101% | residual activity [37]: 89.3% | residual activity [38]: 96.1% | residual activity [39]: 89.9% | residual activity [40]: 76.7% | residual activity [41]: 98.8%

CC(C)N(CCC(=O)c1ccc2ccccc2c1)Cc1ccccc1
residual activity [1]: 100% | residual activity [2]: 100% | residual activity [3]: 104% | residual activity [4]: 103% | residual activity [5]: 98.3% | residual activity [6]: 104% | residual activity [7]: 85.2% | residual activity [8]: 92.9% | residual activity [9]: 91.4% | residual activity [10]: 98.3% | residual activity [11]: 101% | residual activity [12]: 107% | residual activity [13]: 101% | residual activity [14]: 80.9% | residual activity [15]: 89.3% and 98.8% | residual activity [16]: 117% | residual activity [17]: 100% | residual activity [18]: 96.6% | residual activity [19]: 97.7% | residual activity [20]: 110% | residual activity [42]: 81.9% | residual activity [21]: 94.8% | residual activity [22]: 106% | residual activity [23]: 107% | residual activity [24]: 90.4% | residual activity [25]: 116% | residual activity [27]: 107% | residual activity [28]: 101% | residual activity [29]: 97.3% | residual activity [30]: 96.4% | residual activity [31]: 78.3% | residual activity [32]: 95.1% | residual activity [33]: 97.2% | residual activity [34]: 96.5% | residual activity [35]: 91.6% | residual activity [36]: 100% | residual activity [37]: 101% | residual activity [38]: 97.1% | residual activity [39]: 103% | residual activity [40]: 95.8% | residual activity [41]: 93.7%
